Literature values, collected in patent publication US20100004191A1, “Compositions of S-adenosyl-L-methionine” (priority 2008, published 2010).

What was measured:
[1] = test system: alcoholic liver cirrhosis; details: oral; patients with alcoholic liver cirrhosis; compared with placebo treated group
beta-adrenergic = details: L-form vs D-enantiomer

Structure (SMILES)	overall mortality and/or progression to liver transplant [1]	potency relative to the D-enantiomer (beta-adrenergic)
C[S+](CC[C@H](N)C(=O)[O-])C[C@H]1O[C@@H](n2cnc3c(N)ncnc32)[C@H](O)[C@@H]1O (stereo partly drawn) [S-adenosyl-L-methionine]	29%	
CC(C)NCC(O)COc1cccc2ccccc12 (centres unmarked) [propranolol]		100 times
